Assays:
Assay in all cases: selective drug sensitivity score (sDSS, relative to normal bone marrow) (sDSS (score)); higher = more potent and effective on the cell line relative to normal bone marrow cells
Settings in all cases: 72 h
[1] = system: ALL-SIL
[2] = system: ALL-PO
[3] = system: P12-ICHIKAWA
[4] = system: COG-LL-332h
[5] = system: LC4-1
[6] = system: DND-41
[7] = system: MHH-CALL-4
[8] = system: REH
[9] = system: JURKAT
[10] = system: COG-LL-394h
[11] = system: PF-382
[12] = system: KASUMI-2
[13] = system: P30-OHKUBO
[14] = system: KASUMI-9
[15] = system: NALM-6
[16] = system: MOLT-14
[17] = system: HPB-ALL
[18] = system: MN-60
[19] = system: KARPAS-45
[20] = system: NALL-1
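Note: ALL cell lines in 384-well plates, five doses spanning 10,000-fold, each plate scaled between vehicle and 100 µmol/L benzalkonium chloride controls, sDSS an adapted area-under-curve metric.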

SMILES	selective drug sensitivity score [1]	selective drug sensitivity score [2]	selective drug sensitivity score [3]	selective drug sensitivity score [4]	selective drug sensitivity score [5]	selective drug sensitivity score [6]	selective drug sensitivity score [7]	selective drug sensitivity score [8]	selective drug sensitivity score [9]	selective drug sensitivity score [10]	selective drug sensitivity score [11]	selective drug sensitivity score [12]	selective drug sensitivity score [13]	selective drug sensitivity score [14]	selective drug sensitivity score [15]	selective drug sensitivity score [16]	selective drug sensitivity score [17]	selective drug sensitivity score [18]	selective drug sensitivity score [19]	selective drug sensitivity score [20]
O=C(CCNC(=O)c1ccc(OC(F)(F)F)cc1)N[C@@H]1CCCc2ccccc21 [ML390] (top concentration 50000 nM)	2	5.3	18.5	16.1	7.4	5.4	1.8	16.1	14.8	-1.2	9.8	2.9	13.6	13.1	10.8	16.6	6.5	16.8	7.1	-1.2
CCCC(CCC)C(=O)O [Valproic_acid] (top concentration 1000000 nM)	0	0	0	0	0	0	0	0	0	0	0	0	0	0	0	0	0	0	0	0
O=c1sn(-c2cccc3ccccc23)c(=O)n1Cc1ccccc1 [Tideglusib] (top concentration 3000 nM)	3.7	-0.3	-0.3	-0.3	-0.3	3.4	0.9	0.4	-0.3	-0.3	-0.3	-0.3	-0.3	-0.3	-0.3	-0.3	-0.3	-0.3	-0.3	-0.3
CCN(CC)CCOc1ccc(/C(=C(/Cl)c2ccccc2)c2ccccc2)cc1 [Clomifene] (top concentration 10000 nM)	0.12	0.62	0.32	0.42	4.62	1.62	2.72	0.72	-1.28	-0.08	0.72	0.82	3.22	1.72	-0.28	-0.28	-0.78	-0.18	1.22	1.22
COc1cc2c(NC3CCN(C(C)C)CC3)nc(N3CCC(F)(F)CC3)nc2cc1OCCCN1CCCC1 [UNC0642] (top concentration 10000 nM)	-0.04	2.96	-0.14	1.46	-1.14	5.56	1.46	-0.14	-3.64	2.76	-2.14	-0.84	2.06	0.76	-2.24	-1.24	-2.84	-3.74	3.56	-0.74
CCCc1cc(C)[nH]c(=O)c1CNC(=O)c1cc(-c2ccnc(N3CCN(C)CC3)c2)cc2c1cnn2C(C)C [GSK343] (top concentration 1000 nM)	0	0.1	0	0	0	0	0	0	0	0.1	0	0	0	0	0	2	0	0	0	0
COc1ncc(-c2ccc3nccc(-c4ccnnc4)c3c2)cc1NS(=O)(=O)c1ccc(F)cc1F [Omipalisib] (top concentration 1000 nM)	4.6	21.9	4	3.2	1.6	-0.8	13.1	14.4	4.2	-1.1	9.8	12.9	18.6	12.6	17.2	-2.2	3.8	8.9	9.4	4.5
Cc1ccc(=O)n(-c2ccccc2)c1 [Pirfenidone] (top concentration 10000 nM)	0	0	0	0	0	0	0	0	0	0	0	0	0	0	0	0	0	0	0	0
CNC(=O)c1cc(COc2nnc(Nc3ccc(Cl)cc3)c3ccoc23)ccn1 [Telatinib] (top concentration 10000 nM)	0	0	0	0	0.7	0	0	2.6	0	0	0	0	2.9	1	0	0	0.9	0	0	0
O=C(NC[C@H](O)CN1CCc2ccccc2C1)c1cc(NC2COC2)ncn1 (top concentration 10000 nM)	-0.06	-0.06	0.24	1.54	-0.06	-0.06	-0.06	-0.06	-0.06	-0.06	-0.06	-0.06	0.84	-0.06	-0.06	-0.06	3.44	-0.06	0.04	-0.06
Cc1cc(Nc2cc(N3CCN(C)CC3)nc(Sc3ccc(NC(=O)C4CC4)cc3)n2)n[nH]1 [Tozasertib] (top concentration 10000 nM)	22.4	17.3	22.8	19.9	20.6	0.36	4.66	21.2	1.76	3.36	7.06	12.3	22.2	18.4	16.2	20.9	7.46	-0.74	8.56	19.8
Cc1cnc(-c2ccccc2C(C)C)nc1NCc1ccc(-n2ccnn2)cc1 [ML323] (top concentration 10000 nM)	2.64	3.14	1.74	2.04	0.54	1.34	-0.36	3.44	4.14	3.64	3.04	0.14	0.54	0.04	1.84	1.94	0.64	0.04	4.64	0.14
NS(=O)(=O)NCCNc1nonc1/C(=N/O)Nc1ccc(F)c(Br)c1 [Epacadostat] (top concentration 10000 nM)	-0.26	-0.26	-0.26	-0.26	-0.26	-0.26	4.24	3.34	-0.16	-0.26	-0.26	-0.26	-0.06	0.74	-0.26	-0.26	-0.16	1.44	-0.26	3.74
FC(F)(F)c1ccc(/C=C/c2nc(COc3ccc(CCCCn4ccnn4)cc3)co2)cc1 [Mubritinib] (top concentration 1000 nM)	8.66	6.16	20.7	8.06	4.86	5.46	3.46	20	24	16.2	14.2	11.6	7.06	3.56	12.1	4.46	8.86	17.6	11.6	-2.24
CCOc1ccccc1-n1c(C(C)N2CCN(C(=O)COc3ccc(Cl)cc3)CC2)nc2ccccc2c1=O (stereo not given) [Erastin] (top concentration 10000 nM)	6.94	4.54	7.94	12.7	16	7.14	6.44	7.04	-0.16	-0.76	21	19.4	9.54	7.74	7.44	8.54	6.54	-6.86	8.24	6.64
Cn1cc(-c2cnn3c(N)c(Br)c([C@@H]4CCCNC4)nc23)cn1 [MK-8776] (top concentration 2500 nM)	2.04	4.44	-0.36	0.34	0.54	3.84	-0.46	0.24	-1.46	-0.96	0.14	-1.46	-1.16	1.54	-1.36	-1.26	-1.46	-1.46	0.34	-1.46
N#Cc1ccc(C(c2ccc(C#N)cc2)n2cncn2)cc1 [Letrozole] (top concentration 10000 nM)	-0.04	-0.04	-0.04	-0.04	-0.04	1.06	-0.04	4.76	-0.04	-0.04	-0.04	0.76	-0.04	-0.04	-0.04	-0.04	-0.04	-0.04	-0.04	-0.04
CC[C@@H]1C(=O)N(C)c2cnc(Nc3ccc(C(=O)NC4CCN(C)CC4)cc3OC)nc2N1C1CCCC1 [BI-2536] (top concentration 1000 nM)	21.5	15.9	20.9	17.4	20.1	15.6	6.94	16.4	19.2	9.44	18.7	14.1	18.3	20.3	13.4	19	18.2	-0.16	21.3	-8.46
CNS(=O)(=O)Nc1nccc(Cc2c(C)c3ccc(Oc4ncccn4)cc3oc2=O)c1F (top concentration 1000 nM)	0.42	-1.18	-0.98	-1.08	-0.18	3.92	1.02	-0.38	0.92	1.12	-0.18	1.12	-1.18	0.02	-0.88	-0.98	-1.18	-1.18	-0.28	2.22
